From patent publication US20060100154A1, “Long-acting gonadotropin-releasing hormone analogs and methods of use thereof” (YEDA RESEARCH AND DEVELOPMENT CO, priority 2005, published 2006)
Square brackets hold non-standard residues; d marks the D form. Peptide text beside a SMILES is read from it. * marks the point of attachment. NQ = N-(2-chloro-1,4-naphthoquinonyl)-β-alanine, O=C1C(Cl)=C(NCCC(=O)*)C(=O)c2ccccc21; Glutaryl(OAqm) = O=C(CCCC(=O)*)OCc1ccc2c(c1)C(=O)c1ccccc1C2=O; X1 = O=C1c2cc(O)cc(O)c2C(=O)c2c(O)cc(C(=O)*)cc21; d(pGlu) = O=C1CC[C@H](C(=O)O)N1; pGlu = O=C1CC[C@@H](C(=O)O)N1

Tests used:
[1] = Relative hydrophobicity by elution from RP-18 HPLC column; format: physicochemical; conditions: percent of buffer B in which the analog was eluted from RP-18 column
Excerpt: All chemicals and reagents were of analytical grade. Rink amide resin, 9-fluorenylmethoxycarbonyl (Fmoc) protected amino acid derivatives, and all the reagents for solid-phase peptide synthesis were purchased from Novabiochem (Läufelfingen, Switzerland). Side-chain protecting groups employed for peptide synthesis were as follows: Arg, 2,2,4,6,7-pentamethyldihydrobenzofuran-5-sulfonyl (Pbf); His, trityl (Trt); D-Lys, 4-methyltrityl (Mtt) or tert-butyloxycarbonyl (Boc); Trp, tert-butyloxycarbonyl (Boc); Ser and Tyr, tert-butyl (tBu). Reversed phase HPLC was performed on a Spectra-Physics SP-8800 liquid chromatography system equipped with an Applied Biosystems 757 variable wavelength absorbance detector. HPLC prepacked columns were: Lichrocart, containing Lichrosorb RP-18 (250×10 mm; 7 μm, Merck, Darmstadt, Germany) for semi-preparative purification and Lichrospher 100 RP-18 (250×4 mm; 5 μm, Merck, Darmstadt, Germany) and wide pore butyl C4 (250×4.6 mm; 5 μm, J. T. Baker Inc., Phillipsburg, N.J.) for analytical purposes. HPLC purification and analysis were achieved by using a linear gradient established between 0.1% trifluoroacetic acid […] in water as buffer A and 0.1% TFA in 75% aqueous acetonitrile as buffer B. Eluent composition was 10-100% B over 40 mlin, using RP-18 column, and a gradient of 0-100% B over 40 min employing a wide pore butyl (C4) column. N-(2noro-1,4-naphtoqumonyl)-β-alanine (NQ), 1,6,8-Trihydroxy-3-carboxylic acid-anthraquinone (Emo) and 2-hydroxymethyl-anthraquinone hemiglutarate (AntrQ) were synthesized as described^14,24,27 (for chemical structure see FIG. 1).

[2] = tested on: LH release; assay: In vivo LH release after intraperitoneal administration; design: species or system rat; conditions: 20 nmol/rat
Protocol: The ability of [D-Lys^6(Emo)]GnRH to bind GnRH receptors and promote LH release in vitro, prompted the evaluation of its in vivo activity.
Blood samples were withdrawn by cardiac puncture under light ether anesthesia at the indicated time intervals, and serum LH levels were determined by RIA as described above (FIG. 6). Results are the mean±SEM of LH concentrations in the serum of five animals/experimental group. The LH concentration was determined using three different dilutions of each serum sample. Similar results were obtained in two other experiments.

[3] = target: T1, rat pituitary GnRH receptors (Rattus norvegicus, UniProt P30969); assay: Displacement binding assay with 125I[D-Lys6]GnRH on rat pituitary membranes; conditions: for IC50: Table 3, estimated IC50, 125I-[D-Lys6]GnRH tracer; for binding affinity to GnRH receptors (in words): FIG. 11
T1 construct: from tissue; host or cells: rat pituitary membranes (Wistar-derived rats)
T1 sequence (P30969 1-327): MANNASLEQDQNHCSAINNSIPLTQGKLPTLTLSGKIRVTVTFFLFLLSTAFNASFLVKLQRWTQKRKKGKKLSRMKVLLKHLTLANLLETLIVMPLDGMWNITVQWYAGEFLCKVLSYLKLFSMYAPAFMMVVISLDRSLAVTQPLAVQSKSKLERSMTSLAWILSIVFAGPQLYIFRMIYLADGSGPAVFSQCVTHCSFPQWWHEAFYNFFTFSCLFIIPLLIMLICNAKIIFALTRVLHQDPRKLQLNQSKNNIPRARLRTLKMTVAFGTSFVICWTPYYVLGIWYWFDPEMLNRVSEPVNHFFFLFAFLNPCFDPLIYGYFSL
Protocol: Specific binding was calculated by subtracting the non-specific binding from the maximal binding, determined in the absence of any competing peptide. Results are the mean of two experiments carried out in triplicates. SEM values are omitted for clarity (FIG. 3).

[4] = target: T2, rat pituitary GnRH receptor (rat, UniProt P30969 1-327); assay: displacement of 125I[D-Lys6]GnRH from rat pituitary membranes
T2 construct: whole, on cells; Native receptor; also called GnRH receptors; rat pituitary receptors
T2 sequence (looked up): T1 sequence (P30969 1-327)
Protocol: Briefly, membranes were incubated for 90 min at 4° C. with ¹²⁵I[D-Lys⁶]GnRH and with the unlabeled peptides. Non-specific binding was defined as the residual binding in the presence of excess [D-Lys⁶]GnRH (1 μM). Specific binding was calculated by subtracting the non-specific binding from the maximal binding, determined in the absence of any competing peptide. Results are the mean of two experiments carried out in triplicates. SEM values are omitted for clarity (FIG. 3).

With `CC(C)C[C@H](NC(=O)[C@@H](CCCCN)NC(=O)[C@H](Cc1ccc(O)cc1)NC(=O)[C@H](CO)NC(=O)[C@H](Cc1c[nH]c2ccccc12)NC(=O)[C@H](Cc1c[nH]cn1)NC(=O)[C@@H]1CCC(=O)N1)C(=O)N[C@@H](CCCNC(=N)N)C(=O)N1CCC[C@H]1C(=O)NCC(N)=O` [[D-Lys^6]GnRH] the “Hydrophobicity (% B)” value [1] was 37 % B and the “increase in serum LH levels at higher dose” value [2] was “larger increase in serum LH levels”.

With `CC(C)C[C@H](NC(=O)[C@@H](CCCCN)NC(=O)[C@H](Cc1ccc(O)cc1)NC(=O)[C@H](CO)NC(=O)[C@@H](Cc1c[nH]c2ccccc12)NC(=O)[C@@H](Cc1ccccc1)NC(=O)[C@H]1CCC(=O)N1)C(=O)N[C@@H](CCCNC(=N)N)C(=O)N1CCC[C@H]1C(=O)NCC(N)=O` [[D-Lys^6]Antg, [D-Pyr^1, D-Phe^2, D-Trp^3, D-Lys^6]GnRH] ([d(pGlu)][dF][dW]SY[dK]LRPG-NH2) the IC50 [3] was 45 nM.

With “[D-Pyr^1, D-Phe^2, D-Trp^3, D-Lys^6]GnRH ([d(pGlu)][dF][dW]SY[dK]LRPG-NH2; SMILES CC(C)C[C@H](NC(=O)[C@@H](CCCCN)NC(=O)[C@H](Cc1ccc(O)cc1)NC(=O)[C@H](CO)NC(=O)[C@@H](Cc1c[nH]c2ccccc12)NC(=O)[C@@H](Cc1ccccc1)NC(=O)[C@H]1CCC(=O)N1)C(=O)N[C@@H](CCCNC(=N)N)C(=O)N1CCC[C@H]1C(=O)NCC(N)=O)” the “binding affinity to GnRH receptors (in words)” value [3] was “lower binding affinity to GnRH receptor as compared to [D-Lys^6]GnRH”.

With `CC(C)C[C@H](NC(=O)[C@@H](CCCCNC(=O)CCNC1=C(Cl)C(=O)c2ccccc2C1=O)NC(=O)[C@H](Cc1ccc(O)cc1)NC(=O)[C@H](CO)NC(=O)[C@H](Cc1c[nH]c2ccccc12)NC(=O)[C@H](Cc1c[nH]cn1)NC(=O)[C@@H]1CCC(=O)N1)C(=O)N[C@@H](CCCNC(=N)N)C(=O)N1CCC[C@H]1C(=O)NCC(N)=O` [[D-Lys^6(NQ)]GnRH, [D-Lys^6(N-(2-chloro-1,4-naphthoquinonyl)-β-alanyl)]GnRH] the “Hydrophobicity (% B)” value [1] was 59 % B and the “increase of binding affinity to GnRH receptors compared to the parent peptide” value ([3]; vs [D-Lys6]GnRH) was 2 folds.

For `CC(C)C[C@H](NC(=O)[C@@H](CCCCNC(=O)c1cc(O)c2c(c1)C(=O)c1cc(O)cc(O)c1C2=O)NC(=O)[C@H](Cc1ccc(O)cc1)NC(=O)[C@H](CO)NC(=O)[C@@H](Cc1c[nH]c2ccccc12)NC(=O)[C@@H](Cc1ccccc1)NC(=O)[C@H]1CCC(=O)N1)C(=O)N[C@@H](CCCNC(=N)N)C(=O)N1CCC[C@H]1C(=O)NCC(N)=O` [[D-Lys^6(Emo)]Antg, [D-Pyr^1, D-Phe^2, D-Trp^3, D-Lys^6(Emo)]GnRH] ([d(pGlu)][dF][dW]SY[dK](X1)LRPG-NH2), the “binding affinity to GnRH receptors (in words)” value [3] was “lower binding affinity” and the IC50 [3] was 150 nM.

B1: [D-Lys^6(2-hydroxymethyl-anthraquinone hemiglutarate)]GnRH (peptide)
peptide: [pGlu]HWSY[dK](Glutaryl(OAqm))LRPG-NH2
notes: Quinone conjugate of [D-Lys6]GnRH; also called [D-Lys^6(AntrQ)]GnRH; [D-Lys^6(AntQ)]GnRH
In the case of B1, the IC50 [4] is reported as 0.02 nM.

B2: [D-Lys^6(N-(2-chloro-1,4-naphthoquinonyl)-β-alanyl)]GnRH (peptide)
peptide: [pGlu]HWSY[dK](NQ)LRPG-NH2
notes: Quinone conjugate of [D-Lys6]GnRH; also called [D-Lys^6(NQ)]GnRH
Molecule B2 has an IC50 [4] of 0.09 nM.
